What was measured:
[1] = tested on: TNFα release from LPS-stimulated THP-1 cells (iRhom2/ADAM17-dependent); assay: Primary screen (Example 1b): LPS-stimulated TNFα release from THP-1 cells, HTRF; format: cell-based; details: Homo sapiens, overnight pre-incubation, LPS 100 ng/mL, 3 h, normalized against 10 μM Batimastat
Protocol: (§1) Two separate screens to identify novel small molecule inhibitors of iRhom2/ADAM17 activity were developed. […] Therefore, the primary screen for small molecule inhibitors of iRhom2/ADAM17 was a screen for inhibitors that blocked the release of TNFα from LPS-stimulated THP-1 human myeloid cells, a process that depends on iRhom2 and ADAM17. Since the release of TNFα from THP-1 cells can be blocked at many stages of the LPS/TLR4/iRhom2/ADAM17 pathway, a secondary screen was performed for another iRhom2/ADAM17 selective substrate, Kit-ligand 2 (KL-2) (Maretzky T et al. (July 2013), “iRhom2 controls the substrate selectivity of stimulated ADAM17-dependent ectodomain shedding”, PNAS 110(28): 11433-11438) in a different human cell type, human embryonic kidney cells (HEK 293).
THP-1 cells were plated in low volume 384 wells (10,000 cells per well in 12.6 μL RPMI medium) together with inhibitors or 10 μM BB94 and incubated over night. The next day, TNFα shedding was initiated by stimulation of THP-1 cells with 100 ng/mL LPS (1.8 μL of an 800 ng/mL LPS stock) for 3 hrs at 37° C. The extent of released TNFα was detected with the corresponding HTRF antibodies labeled with europium cryptate (donor) and d2 (acceptor). The HTRF signal was generated by proximity of europium cryptate and d2. All detection reagents were purchased from Cisbio. TNFα detection was performed according to the manufacturer's protocol (Product Insert for Cisbio TNFα (h) Kit Part #62HTNFAPEG & 62HTNFAPEH; https://www.cisbio.com/media/asset/c/i/cisbio_dd_pi_62htnfapeg-62htnfapeh.pdf, accessed Sep. 28, 2020).
Low volume 384 well plates were pre-coated with small molecule library compounds for a final concentration of 20 μM in a 15 μL reaction, or 0.75 μL of 200 μM stock of BB94 in 5% DMSO (final concentration 0.25%). 12.6 μL of cell suspension [8E5/mL; 10,000 cells/well; culture RPMI medium] and pre-incubated at 37° C., 5% CO2, over night. The next day, 1.8 μL of an 800 ng/mL LPS stock was added [final concentration 100 ng/mL in 15 μL assay] and the cells were incubated at 37° C., 5% CO2, for 3 h. Subsequently, 3 μL of the HTRF-mix [used at 1:3 dilution of cisbio HTRF human TNF] was added and the plates were incubated for an additional 2 hrs at 25° C. After an incubation at room temperature for 2 h, the HTRF readout was performed. Then data evaluation for normalization against the 10 μM Batimastat control (=100% […]) was applied.

[2] = tested on: PMA-stimulated KL2 release from HEK-293 cells (iRhom2/ADAM17 selective substrate); assay: Secondary screen (Example 3b): PMA-stimulated KL2 release from HEK-293 cells, AP readout; format: cell-based; details: Homo sapiens, HEK293, HEK-293 cells expressing KL2-AP, PMA 100 ng/mL, 2 h, read-out: Secondary Screen IC50 KitL2
Protocol: as §1
Expression plasmids for alkaline phosphatase (AP)-fused human KL2 and TGFα had been previously designed and generated through gene synthesis followed by subcloning into the pcDNA3.1(+)/Hygro expression vector. […] Subsequently, DNA amplifications were performed to obtain sufficient amounts of the expression vectors. The quality of DNA and gene sequences were confirmed through restriction digest and Sanger sequencing. In parallel, cell culture of HEK-293 cells was initiated. Master and working cell banks were prepared, scaled up and transfected with the respective constructs by electroporation. During cell culturing, cell density and viability were monitored to ensure optimal conditions for the transfections. After PMA stimulation, AP-coupled KL2 or TGFα were detected by measurement of AP activity in the supernatant.
After electroporation, cells were further cultured in presence of selection antibiotics, hygromycin B, to generate stably transfected polyclonal cell pools. For both assays, KL2 and TGFα shedding, the respective selected pool turned out to be suitable. Final assay conditions were determined for the selected pools. For all experiments, batimastat (BB94, 10 μM) was used as positive control for full inhibition of KL2 or TGFα shedding.
The wells of sterile 384-well flat bottom clear plates for KL2-AP assays were coated with 10 μL of 0.1 mg/mL poly-d-lysine for 3-4 hr at 25° C. or overnight at 4° C., then washed 2× with PBS and patted dry. 60 μL of cells (40,000/well) were added to the sterile 384-well plate and incubated in Optimem (with 2% FCS and 1% Pen-strep) overnight at 37° C. (5% CO2). After incubation overnight, 55 μL medium were removed with a BioTek EL406 and 10 μL of prediluted compounds were added to the cells for a final concentration of 20 μM. After incubation for 15 min, 15 μL of PMA (100 ng/mL final conc.) were added. The cells were incubated for 2 h at 37° C. (5% CO2). Then, the plates were centrifuged for 5 min at 1000 rpm and 3 μL of the supernatant was transferred to a fresh 384 well plate and 9 μL of AP Balance Buffer was added per well. 12 μL of pNPP p-nitrophenyl phosphate (final 1 M pNPP) was added. AP reaction was performed for 1 h at 37° C. The reaction was stopped by addition of 12 μL of NaOH (1 M final conc.), the plates were centrifuged to remove air bubbles and the absorbance of pNP was measured at 405 nm.

Structure (SMILES)	IC50 [1] [µM]	IC50 [2] [µM]
Cc1c(C(=O)NCc2cccs2)sc(=O)n1Cc1ccccc1F [Compound 5]	5.21	> 40
Cc1c(C(=O)NCc2cccs2)sc(=O)n1Cc1ccccc1 [Compound 4]	7.57	> 40
Cc1c(C(=O)NCc2ccco2)sc(=O)n1Cc1ccccc1F [Compound 7]	3.93	22
O=C(c1c(Cl)cccc1Cl)N1CCC(Cc2ccc(F)cc2)CC1 [Compound 3]	< 0.0625	> 40
